Tests used:
Format in all cases: biochemical, influenza A/Chungbuk/4448/2008(H1N1) virus
[1] = biological target: neuraminidase (NA) of recombinant virus Chungbuk-Y275-N295S-I117M (Influenza A virus, UniProt E3JK96, I117M/N295S)
[2] = biological target: neuraminidase (NA) of recombinant virus Chungbuk-Y275H-N295S-I117V (Influenza A virus (A/Chungbuk/4448/2008(H1N1)), UniProt E3JK96, I117V/N295S/Y275H)
[3] = tested on: NA of all the single and double mutants containing tyrosine (Y) at NA residue 275 except Chungbuk-Y275-E119V
[4] = biological target: neuraminidase (NA) of recombinant virus Chungbuk-Y275-N295S-I223V (Influenza A virus, UniProt E3JK96, I223V/N295S)
[5] = tested on: NA of all the single, double, and triple mutants containing the E119V mutation
[6] = biological target: neuraminidase (NA) of recombinant virus Chungbuk-Y275-E119V (Influenza A virus, UniProt E3JK96, E119V)
[7] = biological target: neuraminidase (NA) of recombinant virus Chungbuk-Y275H-N295S-I223V (Influenza A virus (A/Chungbuk/4448/2008(H1N1)), UniProt E3JK96, I223V/N295S/Y275H)
[8] = biological target: neuraminidase (NA) of recombinant virus Chungbuk-Y275H-N295S-I117M (Influenza A virus (A/Chungbuk/4448/2008(H1N1)), UniProt E3JK96, I117M/N295S/Y275H)
[9] = biological target: neuraminidase (NA) of recombinant virus Chungbuk-Y275H-E119V (Influenza A virus, UniProt E3JK96, E119V/Y275H)

Question: How did the NAI resistance phenotype [1] turn out when `CC(=O)N[C@H]1[C@H]([C@H](O)[C@H](O)CO)OC(C(=O)O)=C[C@@H]1N=C(N)N` [Zanamivir] was run?
Answer: susceptible

Question: What about the NAI resistance phenotype [2] of the same compound?
Answer: susceptible

Question: And the NAI resistance phenotype [3]?
Answer: susceptibility

Question: What about the NAI resistance phenotype [4] of the same compound?
Answer: susceptible

Question: What about the NAI resistance phenotype [5] of the same compound?
Answer: resistance

Question: What about the NAI resistance phenotype [6] of the same compound?
Answer: important levels of resistance

Question: And the NAI resistance phenotype [7]?
Answer: susceptible

Question: What about the NAI resistance phenotype [8] of the same compound?
Answer: susceptible

Question: And the NAI resistance phenotype [9]?
Answer: important levels of resistance
